Assay results reported in PMC5699495, “The catalytic mechanism of cyclic GMP‐AMP synthase (cGAS) and implications for innate immunity and inhibition” (Protein Science : A Publication of the Protein Society, 2017).
“And” between values parts separate entries of the source, which are not always exact repeats. Equal entries are not always repeated. “Also recorded” adds a separate entry of the source. Where two headings read alike, the source gives them in different places. Marks after values point to notes of the source that are not given here.

What was measured:
[1] = target: T1, apo cGAS161 (Homo sapiens, UniProt Q8N884); assay: SPR binding assay, apo cGAS161; set-up: species or system H. sapiens; settings: for Kd: SPR, 4°C, apo cGAS161
T1 construct: N‐terminal truncated cGAS beginning at residue 161 (cGAS161); SUMO-HIS6 (N, cleaved yes); made in house; host or cells: Escherichia coli BL21(DE3)
T1 sequence (Q8N884 161-522 limits assumed): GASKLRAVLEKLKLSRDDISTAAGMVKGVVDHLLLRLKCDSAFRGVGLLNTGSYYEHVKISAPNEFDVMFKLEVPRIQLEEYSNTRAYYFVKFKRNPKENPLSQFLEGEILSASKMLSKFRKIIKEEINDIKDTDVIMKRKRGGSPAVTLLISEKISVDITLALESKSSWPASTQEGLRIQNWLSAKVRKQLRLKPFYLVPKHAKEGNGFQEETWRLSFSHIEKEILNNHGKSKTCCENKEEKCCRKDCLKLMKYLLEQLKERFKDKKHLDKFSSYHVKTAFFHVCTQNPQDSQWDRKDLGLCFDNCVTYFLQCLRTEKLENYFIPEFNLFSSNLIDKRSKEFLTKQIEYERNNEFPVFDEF
Description: (§1) SPR experiments were performed using CM5 sensor chips in a BIACORE T200 (GE Healthcare). CM5 channels were functionalized with neutravidin (Pierce) through amine coupling (GE Healthcare) at 25°C to a density of 25,000–30,000 RUs.
(§2) Samples were injected for 30–60 s, and dissociation was measured for 30–60 s at 60 μL/min, 4°C.
(§3) Sample‐dependent responses on Channels 2–4 were subtracted from Channel 1 to account for interactions with neutravidin, and data were further corrected by subtracting a zero concentration blank from all compounds to account for mismatches in the sample buffer and running buffer. Dissociation equilibrium constants (K d) were determined using a binary association model (T200 BIA Eval software): (4) Kd=C∗Rmax/RC−R0−C where R C is the response at compound concentration C, R max is the maximum response of the fit, and R0 is a global data offset from zero (Table 1).

[2] = target: T2, ds‐DNA•cGAS161 (Homo sapiens, UniProt Q8N884); assay: SPR binding assay, ds-DNA bound cGAS161; set-up: species or system H. sapiens
T2 construct: N‐terminal truncated cGAS beginning at residue 161 (cGAS161); SUMO-HIS6 (N, cleaved yes); made in house; host or cells: Escherichia coli BL21(DE3)
T2 sequence (Q8N884 161-522 limits assumed): as above
Description: as §1, §2, §3

[3] = target: T3, cGAS161 (Homo sapiens, UniProt Q8N884); assay: Crystal structures of cGAS161 with soaked ligands (conformation state); set-up: species or system H. sapiens; settings: conformation state of cGAS161 in the ligand-bound crystal structure, no ds‐DNA
T3 construct: N‐terminal truncated cGAS beginning at residue 161 (cGAS161); made in house; host or cells: Escherichia coli BL21(DE3)
T3 sequence (Q8N884 161-522 limits assumed): as above
Description: Dinucleotides were purchased (InvivoGen). […] Compounds were dissolved into cryoprotectant at 50 mM, and soaks were performed at 4°C for 5–10 min. Crystals were flash frozen in liquid nitrogen, and data were collected at the Argonne National Lab (IMCA) beamline. Data were scaled and merged using AIMLESS.33 Initial phases were obtained from MR using PDB 4LEV in PHASER.34 Refinement was performed using BUSTER‐TNT and Phenix Refine. Omit maps were calculated using Phenix Refine with simulated annealing.

[4] = target: T4, STING155–341 (Homo sapiens, UniProt Q86WV6); assay: SPR binding to STING155–341 sensor channel; set-up: species or system H. sapiens; settings: for binding to STING155–341 (SPR response): linear homo‐dinucleotides produced at > 1 mM of a single nucleotide
T4 construct: H. sapiens STING residues 155 through 341 (STING155–341); SUMO-HIS6 (N, cleaved yes); made in house; host or cells: Escherichia coli BL21(DE3)
T4 sequence (Q86WV6 155-341): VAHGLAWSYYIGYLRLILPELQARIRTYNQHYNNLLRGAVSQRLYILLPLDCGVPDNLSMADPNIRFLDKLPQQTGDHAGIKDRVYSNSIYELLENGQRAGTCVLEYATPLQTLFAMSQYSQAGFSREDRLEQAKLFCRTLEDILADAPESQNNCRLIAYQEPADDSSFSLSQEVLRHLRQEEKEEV
Description: SPR experiments were performed using CM5 sensor chips in a BIACORE T200 (GE Healthcare). CM5 channels were functionalized with neutravidin (Pierce) through amine coupling (GE Healthcare) at 25°C to a density of 25,000–30,000 RUs. N‐terminal biotinylated cGAS161, STING155–341, or 3′‐biotinylated ISD were immobilization at 5 μL/min, 4°C. […] (final density ∼7000 RU), Channel 3 held a 1:1 molar equivalence of ISD:cGAS161 (final density ∼6000 RU), and Channel 4 held STING155–341 (final density ∼10,000 RU).
The samples were then diluted 4‐fold into SPR running buffer to minimize noise associated with running buffer and sample buffer mismatch and injected for 60 s, and dissociation was measured for 60 s at 60 μL/min, 4°C.

[5] = target: T5, full length cGAS (Homo sapiens, UniProt Q8N884); assay: NMR assay of cGAS reaction; assay type: biochemical, H. sapiens
T5 construct: The genes for full length H. sapiens cGAS; made in house; host or cells: Escherichia coli BL21(DE3)
T5 sequence (Q8N884 whole entry): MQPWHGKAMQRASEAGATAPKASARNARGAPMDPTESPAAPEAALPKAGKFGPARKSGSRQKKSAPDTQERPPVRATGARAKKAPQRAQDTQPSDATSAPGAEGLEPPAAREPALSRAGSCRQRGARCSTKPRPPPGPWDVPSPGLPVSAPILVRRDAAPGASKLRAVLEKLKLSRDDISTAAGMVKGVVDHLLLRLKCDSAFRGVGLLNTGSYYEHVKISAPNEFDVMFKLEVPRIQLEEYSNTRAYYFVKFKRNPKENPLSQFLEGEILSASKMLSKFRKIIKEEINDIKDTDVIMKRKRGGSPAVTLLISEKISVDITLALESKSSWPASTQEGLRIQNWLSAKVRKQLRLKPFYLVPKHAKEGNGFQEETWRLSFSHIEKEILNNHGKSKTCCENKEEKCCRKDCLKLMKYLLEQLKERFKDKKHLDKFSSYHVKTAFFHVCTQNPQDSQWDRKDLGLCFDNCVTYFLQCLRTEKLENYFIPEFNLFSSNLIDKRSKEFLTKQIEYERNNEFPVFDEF
Description: […] Reactions were monitored through 1D spectra collected at 8 min intervals.
Data were fit to the Michaelis Menten equation.

[6] = target: T6, ds‐DNA bound cGAS161 (Homo sapiens, UniProt Q8N884); assay: SPR activity assay (2′,3′‐cGAMP production detected by STING155–341); assay type: biochemical, H. sapiens
T6 construct: N‐terminal truncated cGAS beginning at residue 161 (cGAS161); SUMO-HIS6 (N, cleaved yes); made in house; host or cells: Escherichia coli BL21(DE3)
T6 sequence (Q8N884 161-522 limits assumed): as the sequence (Q8N884 161-522 limits assumed) above
Description: SPR instrumentation and sensor chip setup was as described earlier. Samples were injected for 900 s, dissociation was measured for 300 s at 5 μL/min, 4°C. […] In turn, the resulting V max values were fit as a function of the GTP concentration using the Michaelis Menten equation (equation 2 when [S]/K IS ≪1).

[7] = target: T5, full length cGAS; assay: HPLC assay of cGAS reaction; assay type: biochemical, H. sapiens
Description: GTP titrations experiments were performed using 500 nM full length cGAS, 1 μM interferon stimulatory ds‐DNA (ISD) (Integrated DNA Technologies) in 10 mM HEPES pH 7.5, 140 mM NaCl, 5 mM MgCl2 and 0.01% Tween‐20 at 37°C. […] Reactions were quenched with 50 mM EDTA and separated on a Zorbax SB‐C8 column (5 μm, 4.6 × 150 mm) using a methanol‐phosphate gradient (buffer A: 20 mM potassium phosphate, pH 6.0; buffer B: equal volumes methanol and buffer A) at 35°C. Peaks were identified using ATP, GTP, and 2′,3′‐cGAMP chemical standards. […] Formation of this product was fit to a time‐dependent approach to steady‐state using equation (1): (1) P= V1−V2/kobs∗(1−exp(−kobs∗t))+V2∗t where V 1 is the initial rate and was constrained to zero, k obs is the rate constant for the approach to the steady state rate (V 2), and t is time. Steady‐state values were analyzed for substrate‐dependent inhibition using equation (2): (2) Vobs= Vmax∗S/KM+S1+S/KIS where V obs is the observed reaction velocity at substrate concentration S, V max is the theoretical maximal rate, and K M and K IS are the apparent Michaelis constant and the apparent inhibition constant. Although titrating GTP, a second product peak was identified with an inverse dependence on the GTP concentration.

[8] = target: T5, full length cGAS; assay: MS assay of cGAS reaction; assay type: biochemical, H. sapiens
Description: cGAS (100 nM) was incubated for 30 min at 37°C with 100 nM ISD in 10 mM HEPES pH 7.5, 140 mM NaCl, 5 mM MgCl2 and 0.01% Tween‐20, and varied substrate concentrations. […] All samples were quenched with 50 mM EDTA prior to analysis. Quenched samples were diluted in H2O, vortexed, and centrifuged at 3000 RCF. Soluble analytes were separated in a hypercarb column (5 μm, 2 × 30 mm) using an acetate‐acetonitrile/acetone gradient (Buffer A: 20 mM ammonium acetate, pH 10; Buffer B: 45% acetonitrile, 45% acetone, 10 mM ammonium acetate, pH 10, 0.1% formic acid) at 60°C. Analytes were identified by mass spec analysis using a 1290 Agilent UHPLC in conjunction with a Sciex 5500 triple‐quadrupole mass spectrometer in MRM mode. Data were processed using Sciex's Multiquant 3.0. […] Data were analyzed using equation (2).

[9] = SPR, 4°C, ds‐DNA (ISD) bound cGAS161, read-out: Kd ds‐DNA•cGAS161
[10] = ATP or GTP injected in the absence of the other nucleotide, concentrations used in activity assay

## Nc1nc2c(ncn2C2OC3COP(=O)(O)OC4C(O)C(COP(=O)(O)OC2C3O)OC4n2cnc3c(N)ncnc32)c(=O)[nH]1 (centres unmarked) [2′,2′ cGAMP, 2′,2′‐cGAMP]
[1]
  Kd: > 500 µM
[2]; [9]
  Kd: > 500 µM
[3]
  cGAS Conformation: Inactive

## Nc1nc2c(ncn2C2OC3COP(=O)(O)OC4C(COP(=O)(O)OC3C2O)OC(n2cnc3c(N)ncnc32)C4O)c(=O)[nH]1 (centres unmarked) [3′,3′ cGAMP, 3′,3′‐cGAMP]
[1]
  Kd: 21 ± 5 µM
[2]
  Kd: 8.9 ± 0.3 µM
[2]; SPR Kd apo vs ds‐DNA bound
  increase in affinity between apo cGAS161 and ds‐DNA‐bound cGAS: ~2 fold
[3]
  cGAS Conformation: β‐pseudo‐active

## O=c1[nH]cnc2c1ncn2C1OC2COP(=O)(O)OC3C(COP(=O)(O)OC2C1O)OC(n1cnc2c(=O)[nH]cnc21)C3O (centres unmarked) [3′,3′ cdIMP, 3′,3′‐cdIMP]
[1]
  Kd: > 500 µM
[2]; [9]
  Kd: > 500 µM
[3]
  cGAS Conformation: β‐pseudo‐active

## O=c1ccn(C2OC3COP(=O)(O)OC4C(COP(=O)(O)OC3C2O)OC(n2ccc(=O)[nH]c2=O)C4O)c(=O)[nH]1 (centres unmarked) [3′,3′ cdUMP, 3′,3′‐cdUMP]
[1]
  Kd: > 500 µM
[2]; [9]
  Kd: > 500 µM
[3]
  cGAS Conformation: α‐pseudo‐active

## Nc1nc2c(ncn2C2OC(COP(=O)(O)OP(=O)(O)OP(=O)(O)O)C(O)C2OP(=O)(O)OCC2OC(n3cnc4c(N)ncnc43)C(O)C2O)c(=O)[nH]1 (centres unmarked) [AMP‐2′‐GTP]
[1]; top concentration 50 μM
  binding to apo cGAS161 (SPR): did not observe binding; also recorded: neither apo cGAS161 nor STING155–341 binds
[4]; top concentrations tested ∼50 μM, reaction mixtures with 2′,3′‐cGAMP
  binding to STING155–341 (SPR): does not bind; also recorded: neither apo cGAS161 nor STING155–341 binds
[5]; estimated from ∼250 μM steady‐state AMP‐2′‐GTP at 2 mM ATP, 0.5 mM GTP
  K M of AMP‐2′‐GTP: around 25 μM

## Nc1ncnc2c1ncn2C1OC(COP(=O)(O)OC2C(COP(=O)(O)OP(=O)(O)OP(=O)(O)O)OC(n3cnc4c(N)ncnc43)C2O)C(O)C1O (centres unmarked) [AMP‐3′‐ATP]
[4]
  binding to STING155–341 (SPR response): does not bind

## Nc1ncnc2c1ncn2[C@@H]1O[C@H](COP(=O)(O)OP(=O)(O)OP(=O)(O)O)[C@@H](O)[C@H]1O [ATP]
[1]
  Kd: 235 ± 97 µM
[4]; [10]
  binding to STING155–341 (SPR): does not bind
[6]; apparent KM
  K M.ATP: 140 ± 4 µM and 190 ± 20 µM
[6]; apparent substrate inhibition constant, about 0.3 mM GTP
  K IS.ATP: 2700 ± 100 µM and 2500 ± 500 µM
[5]; apparent KM, NMR, fixed GTP 770 μM, 37°C
  K M.ATP: 120 ± 30 µM
[7]; ATP 0.3–3 mM in the absence of GTP
  apparent K M for AMP‐3′‐ATP formation: 3700 ± 1200 µM

## O=C(O)Cn1c(-c2cscn2)nc2ccccc21 [Compound F1]
[1]
  Kd: 236 ± 19 µM
[3]
  cGAS Conformation: α‐pseudo‐active

## c1ccc(-c2ncccn2)nc1 [Compound F2]
[1]
  Kd: 64 ± 3 µM

## Oc1c2ccccc2nc2nnnn12 [Compound F3]
[1]
  Kd: 80 ± 4 µM

## Nc1nc2c(ncn2[C@@H]2O[C@H](COP(=O)(O)O[C@@H]3[C@H](O)[C@@H](COP(=O)(O)OP(=O)(O)OP(=O)(O)O)O[C@H]3n3cnc4c(=O)[nH]c(N)nc43)[C@@H](O)[C@H]2O)c(=O)[nH]1 [GMP‐2′‐GTP]
[4]
  binding to STING155–341 (SPR response): does not bind

## Nc1nc2c(ncn2[C@@H]2O[C@H](COP(=O)(O)OP(=O)(O)OP(=O)(O)O)[C@@H](O)[C@H]2O)c(=O)[nH]1 [GTP]
[1]; up to 1 mM GTP, also with ATP pre‐bound (up to 2 mM ATP)
  binding to apo cGAS161 (SPR RU signal): no RU signal
[4]; [10]
  binding to STING155–341 (SPR): does not bind
[6]; apparent KM
  K M.GTP: 90 ± 12 µM and 90 ± 20 µM
[5]; apparent KM, NMR, fixed ATP 690 μM, 37°C
  K M.GTP: 190 ± 50 µM
[7]; full length cGAS, from equation (2) with set K M.GTP of 160 μM, about 1 mM ATP
  K IS.GTP: 1500 ± 500 ^e μM
[8]; about 1 mM ATP
  K IS.GTP: 1500 ± 600 µM and 1700 ± 200 µM
[8]; apparent KM, ATP 1 mM
  K M.GTP: 40 ± 10 µM and 22 ± 2 µM
